Columns and labels:
[1] = target: T1, BTK enzyme (Homo sapiens, UniProt Q06187); assay: In vitro BTK kinase assay: BTK-POLYGAT-LS assay; format: biochemical; settings: ATP 10 μM, read-out: IC50 (10uMATP)
T1 construct: purchased Upstate 14-552
Method in brief: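 Human BTK activity was measured with final 10 μM ATP and 100 nM polyGAT substrate in pH 7.5 Tris buffer with 10 mM MgCl2, DTT, Triton X-100 and casein.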

[2] = target: BTK (phospho-BTK) in human whole blood (Homo sapiens, UniProt Q06187); assay: In vitro PD assay in human whole blood (pBTK assay)
Sequence of BTK (phospho-BTK) in human whole blood (Q06187 whole entry): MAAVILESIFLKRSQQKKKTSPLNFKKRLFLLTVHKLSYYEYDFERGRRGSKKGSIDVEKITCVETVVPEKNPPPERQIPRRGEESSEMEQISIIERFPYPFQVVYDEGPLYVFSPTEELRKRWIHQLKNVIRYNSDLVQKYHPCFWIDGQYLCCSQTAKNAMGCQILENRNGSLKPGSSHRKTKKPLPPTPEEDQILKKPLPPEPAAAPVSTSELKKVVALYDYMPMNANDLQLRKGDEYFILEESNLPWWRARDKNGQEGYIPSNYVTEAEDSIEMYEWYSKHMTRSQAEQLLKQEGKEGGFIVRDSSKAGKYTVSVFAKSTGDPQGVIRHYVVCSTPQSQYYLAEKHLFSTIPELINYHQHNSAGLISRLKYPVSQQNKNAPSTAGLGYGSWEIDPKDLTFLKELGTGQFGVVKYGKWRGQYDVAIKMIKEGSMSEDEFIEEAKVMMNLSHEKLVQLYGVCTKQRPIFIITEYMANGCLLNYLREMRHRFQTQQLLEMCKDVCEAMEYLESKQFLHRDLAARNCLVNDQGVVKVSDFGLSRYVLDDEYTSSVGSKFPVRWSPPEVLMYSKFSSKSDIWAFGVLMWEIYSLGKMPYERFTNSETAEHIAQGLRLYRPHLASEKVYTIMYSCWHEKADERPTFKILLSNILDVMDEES

T1 sequence (Q06187 whole entry): as above

Cc1cc(-c2cc(Nc3cc4c(cn3)CN(C)CC4)ncn2)ccc1CNC(=O)c1cnc(C(C)(C)C)s1 [Example I-269, 2-tert-butyl-N-[[2-methyl-4-[6-[(7-methyl-6,8-dihydro-5H-2,7-naphthyridin-3-yl)amino]pyrimidin-4-yl]phenyl]methyl]thiazole-5-carboxamide]
IC50 [1]: < 10 nM | IC50 [2]: < 500 nM

Cc1cc(-c2ccnc(Nc3cnn(C[C@@H](N)C(=O)O)c3)n2)ccc1CNC(=O)c1cnc(C(C)(C)C)s1 [Example I-132, (R)-2-amino-3-(4-((4-(4-((2-(tert-butyl)thiazole-5-carboxamido)methyl)-3-methylphenyl)pyrimidin-2-yl)amino)-1H-pyrazol-1-yl)propanoic acid]
IC50 [1]: < 10 nM | IC50 [2]: 1500 to 10000 nM

Cn1cc(Nc2nccc(-c3ccc(CNC(=O)c4cnc(C(C)(C)C)s4)c(C(F)(F)F)c3)n2)cn1 [Example I-116, 2-(tert-butyl)-N-(4-(2-((1-methyl-1H-pyrazol-4-yl)amino)pyrimidin-4-yl)-2-(trifluoromethyl)benzyl)thiazole-5-carboxamide]
IC50 [1]: < 10 nM | IC50 [2]: 500 to 1500 nM

Cc1cc(-c2ccnc(Nc3cnn(C4CCN(C)CC4)c3)n2)ccc1CNC(=O)c1cnn(C(C)(C)C)c1 [Example I-197, 1-(tert-butyl)-N-(2-methyl-4-(2-((1-(1-methylpiperidin-4-yl)-1H-pyrazol-4-yl)amino)pyrimidin-4-yl)benzyl)-1H-pyrazole-4-carboxamide]
IC50 [1]: < 10 nM | IC50 [2]: < 500 nM

CC(C)OC1CN(C(=O)NC2CCCc3cc(-c4ccnc(Nc5cnn(C6CCN(C)CC6)c5)n4)ccc32)C1 (stereo not drawn) [Example I-326, 3-isopropoxy-N-[6-[2-[[1-(1-methyl-4-piperidyl)pyrazol-4-yl]amino]pyrimidin-4-yl]tetralin-1-yl]azetidine-1-carboxamide]
IC50 [1]: < 10 nM | IC50 [2]: < 500 nM

Cc1cc(-c2ccnc(Nc3cnn(C)c3)n2)ccc1CNC(=O)N1CCN(C(C)(C)C)CC1 [Example I-23, 4-(tert-butyl)-N-(2-methyl-4-(2-((1-methyl-1H-pyrazol-4-yl)amino)pyrimidin-4-yl)benzyl)piperazine-1-carboxamide]
IC50 [1]: 100 to 999 nM | IC50 [2]: 1500 to 10000 nM

CN1CCn2nc(Nc3cc(-c4ccc(CNC(=O)c5cnn(C(C)(C)C)c5)c(C(F)(F)F)c4)ncn3)cc2C1 [Example I-241, 1-(tert-butyl)-N-(4-(6-((5-methyl-4,5,6,7-tetrahydropyrazolo[1,5-a]pyrazin-2-yl)amino)pyrimidin-4-yl)-2-(trifluoromethyl)benzyl)-1H-pyrazole-4-carboxamide]
IC50 [1]: < 10 nM | IC50 [2]: < 500 nM

Cc1cc(-c2ccnc(Nc3cnn([C@@H]4CCN(C)C4)c3)n2)ccc1CNC(=O)c1cnc(C(C)(C)C)s1 [Example I-123, (R)-2-(tert-butyl)-N-(2-methyl-4-(2-((1-(1-methylpyrrolidin-3-yl)-1H-pyrazol-4-yl)amino)pyrimidin-4-yl)benzyl)thiazole-5-carboxamide]
IC50 [1]: < 10 nM | IC50 [2]: < 500 nM

CC(C)(C)OC1CN(C(=O)NC2CCCCc3cc(-c4ccnc(Nc5cnn(CCO)c5)n4)ccc32)C1 (stereo not drawn) [Example I-178, 3-(tert-butoxy)-N-(2-(2-((1-(2-hydroxyethyl)-1H-pyrazol-4-yl)amino)pyrimidin-4-yl)-6,7,8,9-tetrahydro-5H-benzo[7]annulen-5-yl)azetidine-1-carboxamide]
IC50 [1]: < 10 nM | IC50 [2]: < 500 nM

Cc1cc(-c2ccnc(Nc3cnn(C)c3)n2)ccc1CN1CCc2c(cnn2C(C)(C)C)C1=O [Example I-192, 1-(tert-butyl)-5-(2-methyl-4-(2-((1-methyl-1H-pyrazol-4-yl)amino)pyrimidin-4-yl)benzyl)-6,7-dihydro-1H-pyrazolo[4,3-c]pyridin-4(5H)-one]
IC50 [1]: < 10 nM | IC50 [2]: < 500 nM

CC(C)OC1CN(C(=O)N[C@@H]2CCCCc3cc(-c4ccnc(Nc5cnn(CCO)c5)n4)ccc32)C1 [Example I-169, (R)—N-(2-(2-((1-(2-hydroxyethyl)-1H-pyrazol-4-yl)amino)pyrimidin-4-yl)-6,7,8,9-tetrahydro-5H-benzo[7]annulen-5-yl)-3-isopropoxyazetidine-1-carboxamide]
IC50 [1]: < 10 nM | IC50 [2]: < 500 nM

Cc1cc(-c2cc(Nc3cc4n(n3)CCOC4)ncn2)ccc1CNC(=O)c1cnc(C(C)(C)C)s1 [Example I-276, 2-tert-butyl-N-[[4-[6-(6,7-dihydro-4H-pyrazolo[5,1-c][1,4]oxazin-2-ylamino)pyrimidin-4-yl]-2-methyl-phenyl]methyl]thiazole-5-carboxamide]
IC50 [1]: < 10 nM | IC50 [2]: < 500 nM

Cc1cc(-c2ccnc(Nc3cnn(C)c3)n2)ccc1CNC(=O)N1CC[C@H](C(C)(C)C)C1 [Example I-253, (3R)-3-tert-butyl-N-[[2-methyl-4-[2-[(1-methylpyrazol-4-yl)amino]pyrimidin-4-yl]phenyl]methyl]pyrrolidine-1-carboxamide]
IC50 [1]: < 10 nM | IC50 [2]: < 500 nM

Cc1cc(-c2ccnc(Nc3cnn(C)c3)n2)ccc1CNC(=O)N1CCC(C(C)(C)C)C1 (stereo not drawn) [Example I-224, 3-(tert-butyl)-N-(2-methyl-4-(2-((1-methyl-1H-pyrazol-4-yl)amino)pyrimidin-4-yl)benzyl)pyrrolidine-1-carboxamide]
IC50 [1]: < 10 nM | IC50 [2]: < 500 nM

Cn1cc(Nc2nccc(-c3ccc4c(c3)CCNCC4NC(=O)N3CC(OC(C)(C)C)C3)n2)cn1 (stereo not drawn) [Example I-248, 3-(tert-butoxy)-N-(7-(2-((1-methyl-1H-pyrazol-4-yl)amino)pyrimidin-4-yl)-2,3,4,5-tetrahydro-H-benzo[d]azepin-1-yl)azetidine-1-carboxamide]
IC50 [1]: < 10 nM | IC50 [2]: < 500 nM

CCn1cc(Nc2nccc(-c3ccc4c(c3)CCCCC4NC(=O)N3CC(OC(C)(C)C)C3)n2)cn1 (stereo not drawn) [Example I-173, 3-(tert-butoxy)-N-(2-(2-((1-ethyl-1H-pyrazol-4-yl)amino)pyrimidin-4-yl)-6,7,8,9-tetrahydro-5H-benzo[7]annulen-5-yl)azetidine-1-carboxamide]
IC50 [1]: < 10 nM | IC50 [2]: < 500 nM

COCCn1cc(Nc2nccc(-c3ccc(CNC(=O)N4CC(OC(C)(C)C)C4)c(C)c3)n2)cn1 [Example I-304, 3-tert-butoxy-N-[[4-[2-[[1-(2-methoxyethyl)pyrazol-4-yl)amino]pyrimidin-4-yl]-2-methyl-phenyl]methyl]azetidine-1-carboxamide]
IC50 [1]: < 10 nM | IC50 [2]: < 500 nM

CCn1cc(Nc2nccc(-c3ccc(CNC(=O)N4CCC(C(C)(C)C)C4)c(C(F)(F)F)c3)n2)cn1 (stereo not drawn) [Example I-297, 3-tert-butyl-N-[[4-[2-[(1-ethylpyrazol-4-yl)amino]pyrimidin-4-yl]-2-(trifluoromethyl)phenyl]methyl]pyrrolidine-1-carboxamide]
IC50 [1]: < 10 nM | IC50 [2]: < 500 nM

CN1CC(n2cc(Nc3nccc(-c4ccc(CNC(=O)N5CC(OC(C)(C)C)C5)c(C(F)(F)F)c4)n3)cn2)C1 [Example I-206, 3-(tert-butoxy)-N-(4-(2-((1-(1-methylazetidin-3-yl)-1H-pyrazol-4-yl)amino)pyrimidin-4-yl)-2-(trifluoromethyl)benzyl)azetidine-1-carboxamide]
IC50 [1]: < 10 nM | IC50 [2]: < 500 nM

Cc1cc(-c2ccnc(Nc3cnn(C4CCNCC4)c3)n2)ccc1CNC(=O)c1cnc(C(C)(C)C)s1 [Example I-45, 2-(tert-butyl)-N-(2-methyl-4-(2-((1-(piperidin-4-yl)-1H-pyrazol-4-yl)amino)pyrimidin-4-yl)benzyl)thiazole-5-carboxamide]
IC50 [1]: < 10 nM | IC50 [2]: < 500 nM

CN1CC(n2cc(Nc3nccc(-c4ccc(CNC(=O)c5cnn(C(C)(C)C)c5)c(Cl)c4)n3)cn2)C1 [Example I-356, 1-tert-butyl-N-[[2-chloro-4-[2-[[1-(1-methylazetidin-3-yl)pyrazol-4-yl]amino]pyrimidin-4-yl]phenyl]methyl]pyrazole-4-carboxamide]
IC50 [1]: < 10 nM | IC50 [2]: < 500 nM

CC(C)C1CCN(C(=O)NC2CCCCc3cc(-c4ccnc(Nc5cnn([C@H]6CCOC6)c5)n4)ccc32)C1 (stereo partly drawn) [Example I-345, 3-isopropyl-N-[2-[2-[[1-[(3S)-tetrahydrofuran-3-yl]pyrazol-4-yl]amino]pyrimidin-4-yl]-6,7,8,9-tetrahydro-5H-benzo[7]annulen-5-yl]pyrrolidine-1-carboxamide]
IC50 [1]: < 10 nM | IC50 [2]: < 500 nM

CCC1CN(C(=O)NCc2ccc(-c3ccnc(Nc4cnn(C)c4)n3)cc2C)C1 [Example I-238, 3-Ethyl-N-(2-methyl-4-(2-((1-methyl-1H-pyrazol-4-yl)amino)pyrimidin-4-yl)benzyl)azetidine-1-carboxamide]
IC50 [1]: < 10 nM | IC50 [2]: < 500 nM

Cc1cc(-c2ccnc(Nc3cnn(C4CCN(C)CC4)c3)n2)ccc1CN1Cc2nc(C(C)(C)C)sc2C1=O [Example I-289, 2-tert-butyl-5-[[2-methyl-4-[2-[[1-(1-methyl-4-piperidyl)pyrazol-4-yl]amino]pyrimidin-4-yl]phenyl]methyl]-4H-pyrrolo[3,4-d]thiazol-6-one]
IC50 [1]: < 10 nM | IC50 [2]: < 500 nM

Cc1cc(-c2ccnc(Nc3cnn(CCO)c3)n2)ccc1CNC(=O)c1cnn(C(C)(C)C)c1 [Example I-250, 1-tert-butyl-N-[[4-[2-[[1-(2-hydroxyethyl)pyrazol-4-yl]amino]pyrimidin-4-yl]-2-methyl-phenyl]methyl]pyrazole-4-carboxamide]
IC50 [1]: < 10 nM | IC50 [2]: < 500 nM

CC(C)CN1CCN(Cc2ccc(-c3ccnc(Nc4cnn(CCO)c4)n3)cc2C(F)(F)F)C(=O)C1 [Example I-310, 1-[[4-[2-[[1-(2-hydroxyethyl)pyrazol-4-yl]amino]pyrimidin-4-yl]-2-(trifluoromethyl)phenyl]methyl]-4-isobutyl-piperazin-2-one]
IC50 [1]: < 10 nM | IC50 [2]: < 500 nM

Cc1cc(-c2ccnc(Nc3cnn(C)c3)n2)ccc1CNC(=O)c1ccc(C(C)(C)C)cn1 [Example I-6, 5-(tert-butyl)-N-(2-methyl-4-(2-((1-methyl-1H-pyrazol-4-yl)amino)pyrimidin-4-yl)benzyl)picolinamide]
IC50 [1]: < 10 nM | IC50 [2]: 500 to 1500 nM

— patent publication US10759783B2, “Biaryl inhibitors of Bruton'S tyrosine kinase” (BIOGEN MA INC., priority 2013, dated 2020)
